Source: patent US12239134B2, “Plant antimicrobial compositions including an emulsifier and/or ozone and methods of use” (Arizona Board of Regents on Behalf of The University of …, priority 2018, dated 2025)

Tested on: Salmonella Newport
Test: Biofilm formation on food contact surface coupons, direct plating
Assay type: cell-based, Salmonella enterica
Settings: two-minute treatment
Protocol: A protocol based on direct plating was also evaluated for testing the biofilm formation by Salmonella or L. monocytogenes. Biofilms were formed on three different food contact surface coupons (HDPE, Buna-N rubber, and 316 stainless steel) for up to 3 days in 35 mm mini-petri dishes. Biofilms were formed using a 1:10 diluted TSB solution (10 mL) with either S. enterica or L. monocytogenes inoculum (100 μL). The diluted TSB was changed every 16-18 hours with new 1:10 diluted TSB (10 mL). Coupons were removed for sampling and enumeration of strongly attached bacteria at three different time points (Day 0, 1, and 3). The coupons were rinsed with deionized water five times to remove planktonic cells. Then the coupons were immersed in 10 mL of BPW. The coupons were sonicated for 2 minutes using different settings (Tables 11 and 12) for each organism. After sonication, the solution was serially diluted and plated on Tryptic Soy Agar (TSA). Plates were incubated at 37° C. for 24-48 hours. The colonies were counted and the colony forming units were determined for the various sonication settings, so that the appropriate setting with the most recovery could be determined. […] These settings were used in further experiments to recover the bacterial cells from coupons during sampling and enumeration (by spread plating) of the bacteria in biofilms.
The reduction in bacterial biofilm formation was also tested using a direct plating method. Biofilms were formed on six different food contact surface coupons (HDPE, Buna-N rubber, PC, PVC, and stainless steel 304 and 316) in separate 35 mm mini-petri dishes and evaluated at three different time points (Day 0, 1, and 3). Biofilms were formed using a 1:10 diluted TSB solution (10 mL) with either S. enterica or L. monocytogenes inoculum (100 μL). The coupons were also washed and treated with antimicrobial solutions containing the plant-based emulsifier and the essential oil/plant extracts at various concentrations. The diluted TSB was changed every 16-18 hours with new 1:10 diluted TSB (10 mL). The coupons were rinsed in the antimicrobial solution before adding them to the petri dishes containing the fresh, diluted TSB. After their specific time points, coupons were removed aseptically using sterile forceps from the petri dish. The coupons were rinsed by submerging in 25 mL of sterile deionized H2O and swirled five times to remove planktonic cells. After rinsing, they were placed into a new petri dish immersed in 10 mL of BPW. The coupons were sonicated for 2 minutes on ice using different settings for each organism. After sonication, the sonicated solution was serially diluted using 0.1% peptone water and spread plated on TSA in duplicate. Plates were incubated overnight at 37° C. for 24-48 hours, after which, the colonies were counted, to establish the efficacy of the antimicrobial solutions (Tables 17-25).

With O=CC=Cc1ccccc1 [Cinnamaldehyde, cinnamaldehyde] the “Survivors of Salmonella Newport on food contact surface” value (“Survivors of Salmonella Newport” below) (0.5% with 0.0001% saponin microemulsion, Day 0, 304 SS) was 4.31 Log CFU/mL, the “Survivors of Salmonella Newport” value (0.5% with 0.0001% saponin microemulsion, Day 0, 316 SS) was 4.30 Log CFU/mL and the “Survivors of Salmonella Newport” value (0.5% with 0.0001% saponin microemulsion, Day 0, Buna N) was 4.23 Log CFU/mL. For the same compound, the “Survivors of Salmonella Newport” value (0.5% with 0.0001% saponin microemulsion, Day 0, HDPE) was 4.27 Log CFU/mL, the “Survivors of Salmonella Newport” value (0.5% with 0.0001% saponin microemulsion, Day 0, PC) was 4.06 Log CFU/mL and the “Survivors of Salmonella Newport” value (0.5% with 0.0001% saponin microemulsion, Day 0, PVC) was 3.93 Log CFU/mL. For the same compound, the “Survivors of Salmonella Newport” value (0.5% with 0.0001% saponin microemulsion, Day 1, 304 SS) was 4.45 Log CFU/mL, the “Survivors of Salmonella Newport” value (0.5% with 0.0001% saponin microemulsion, Day 1, 316 SS) was 4.48 Log CFU/mL and the “Survivors of Salmonella Newport” value (0.5% with 0.0001% saponin microemulsion, Day 1, Buna N) was 4.87 Log CFU/mL. The “Survivors of Salmonella Newport” value (0.5% with 0.0001% saponin microemulsion, Day 1, HDPE) was 4.24 Log CFU/mL, the “Survivors of Salmonella Newport” value (0.5% with 0.0001% saponin microemulsion, Day 1, PC) was 4.20 Log CFU/mL and the “Survivors of Salmonella Newport” value (0.5% with 0.0001% saponin microemulsion, Day 1, PVC) was 4.36 Log CFU/mL. The “Survivors of Salmonella Newport” value (0.5% with 0.0001% saponin microemulsion, Day 3, 304 SS) was 4.39 Log CFU/mL, the “Survivors of Salmonella Newport” value (0.5% with 0.0001% saponin microemulsion, Day 3, 316 SS) was 4.26 Log CFU/mL and the “Survivors of Salmonella Newport” value (0.5% with 0.0001% saponin microemulsion, Day 3, Buna N) was 4.34 Log CFU/mL. The “Survivors of Salmonella Newport” value (0.5% with 0.0001% saponin microemulsion, Day 3, HDPE) was 3.24 Log CFU/mL, the “Survivors of Salmonella Newport” value (0.5% with 0.0001% saponin microemulsion, Day 3, PC) was 3.75 Log CFU/mL and the “Survivors of Salmonella Newport” value (0.5% with 0.0001% saponin microemulsion, Day 3, PVC) was 4.21 Log CFU/mL. For the same compound, the “Survivors of Salmonella Newport” value (0.7% with 0.0001% saponin microemulsion, Day 0, 304 SS) was 4.0 Log CFU/mL, the “Survivors of Salmonella Newport” value (0.7% with 0.0001% saponin microemulsion, Day 0, 316 SS) was 4.68 Log CFU/mL and the “Survivors of Salmonella Newport” value (0.7% with 0.0001% saponin microemulsion, Day 0, Buna N) was 4.08 Log CFU/mL. The “Survivors of Salmonella Newport” value (0.7% with 0.0001% saponin microemulsion, Day 0, HDPE) was 4.42 Log CFU/mL, the “Survivors of Salmonella Newport” value (0.7% with 0.0001% saponin microemulsion, Day 0, PC) was 4.11 Log CFU/mL and the “Survivors of Salmonella Newport” value (0.7% with 0.0001% saponin microemulsion, Day 0, PVC) was <1 Log CFU/mL. For the same compound, the “Survivors of Salmonella Newport” value (0.7% with 0.0001% saponin microemulsion, Day 1, 304 SS) was 3.68 Log CFU/mL, the “Survivors of Salmonella Newport” value (0.7% with 0.0001% saponin microemulsion, Day 1, 316 SS) was 3.0 Log CFU/mL and the “Survivors of Salmonella Newport” value (0.7% with 0.0001% saponin microemulsion, Day 1, Buna N) was 3.24 Log CFU/mL. The “Survivors of Salmonella Newport” value (0.7% with 0.0001% saponin microemulsion, Day 1, HDPE) was <1 Log CFU/mL, the “Survivors of Salmonella Newport” value (0.7% with 0.0001% saponin microemulsion, Day 1, PC) was 3.29 Log CFU/mL and the “Survivors of Salmonella Newport” value (0.7% with 0.0001% saponin microemulsion, Day 1, PVC) was <1 Log CFU/mL. For the same compound, the “Survivors of Salmonella Newport” value (0.7% with 0.0001% saponin microemulsion, Day 3, 304 SS) was <1 Log CFU/mL, the “Survivors of Salmonella Newport” value (0.7% with 0.0001% saponin microemulsion, Day 3, 316 SS) was <1 Log CFU/mL and the “Survivors of Salmonella Newport” value (0.7% with 0.0001% saponin microemulsion, Day 3, Buna N) was <1 Log CFU/mL. For the same compound, the “Survivors of Salmonella Newport” value (0.7% with 0.0001% saponin microemulsion, Day 3, HDPE) was <1 Log CFU/mL, the “Survivors of Salmonella Newport” value (0.7% with 0.0001% saponin microemulsion, Day 3, PC) was <1 Log CFU/mL and the “Survivors of Salmonella Newport” value (0.7% with 0.0001% saponin microemulsion, Day 3, PVC) was <1 Log CFU/mL. For the same compound, the “Survivors of Salmonella Newport” value (1% with 0.0001% saponin microemulsion, Day 0, 304 SS) was <1 Log CFU/mL, the “Survivors of Salmonella Newport” value (1% with 0.0001% saponin microemulsion, Day 0, 316 SS) was <1 Log CFU/mL and the “Survivors of Salmonella Newport” value (1% with 0.0001% saponin microemulsion, Day 0, Buna N) was <1 Log CFU/mL. The “Survivors of Salmonella Newport” value (1% with 0.0001% saponin microemulsion, Day 0, HDPE) was <1 Log CFU/mL, the “Survivors of Salmonella Newport” value (1% with 0.0001% saponin microemulsion, Day 0, PC) was <1 Log CFU/mL and the “Survivors of Salmonella Newport” value (1% with 0.0001% saponin microemulsion, Day 0, PVC) was <1 Log CFU/mL. The “Survivors of Salmonella Newport” value (1% with 0.0001% saponin microemulsion, Day 1, 304 SS) was <1 Log CFU/mL, the “Survivors of Salmonella Newport” value (1% with 0.0001% saponin microemulsion, Day 1, 316 SS) was <1 Log CFU/mL and the “Survivors of Salmonella Newport” value (1% with 0.0001% saponin microemulsion, Day 1, Buna N) was <1 Log CFU/mL. The “Survivors of Salmonella Newport” value (1% with 0.0001% saponin microemulsion, Day 1, HDPE) was <1 Log CFU/mL, the “Survivors of Salmonella Newport” value (1% with 0.0001% saponin microemulsion, Day 1, PC) was <1 Log CFU/mL and the “Survivors of Salmonella Newport” value (1% with 0.0001% saponin microemulsion, Day 1, PVC) was <1 Log CFU/mL. The “Survivors of Salmonella Newport” value (1% with 0.0001% saponin microemulsion, Day 3, 304 SS) was <1 Log CFU/mL, the “Survivors of Salmonella Newport” value (1% with 0.0001% saponin microemulsion, Day 3, 316 SS) was <1 Log CFU/mL and the “Survivors of Salmonella Newport” value (1% with 0.0001% saponin microemulsion, Day 3, Buna N) was <1 Log CFU/mL. For the same compound, the “Survivors of Salmonella Newport” value (1% with 0.0001% saponin microemulsion, Day 3, HDPE) was <1 Log CFU/mL, the “Survivors of Salmonella Newport” value (1% with 0.0001% saponin microemulsion, Day 3, PC) was <1 Log CFU/mL and the “Survivors of Salmonella Newport” value (1% with 0.0001% saponin microemulsion, Day 3, PVC) was <1 Log CFU/mL.
